A short description of data set [1]: The drug is tested on Bifidobacterium longum subsp. Infantis strain: CCUG52486 for biotransformation. The drug concentrations were measured before and after a 12-h incubation by liquid-chromatography-coupled mass spectrometry (LC–MS). To be noted: 2 µM.
Data set [2] can be described thus: The drug is tested on Bifidobacterium ruminantium strain: fecal isolate for biotransformation. The drug concentrations were measured before and after a 12-h incubation by liquid-chromatography-coupled mass spectrometry (LC–MS). To be noted: 2 µM.
Data set [3] can be described thus: The drug is tested on Collinsella aerofaciens strain: ATCC25986 for biotransformation. The drug concentrations were measured before and after a 12-h incubation by liquid-chromatography-coupled mass spectrometry (LC–MS). To be noted: 2 µM.
A short description of data set [4]: The drug is tested on Bacteroides caccae strain: ATCC43185 for biotransformation. The drug concentrations were measured before and after a 12-h incubation by liquid-chromatography-coupled mass spectrometry (LC–MS). To be noted: 2 µM.
Data set [5] in a line: The drug is tested on Bacteroides cellulosilyticus strain: DSM14838 for biotransformation. The drug concentrations were measured before and after a 12-h incubation by liquid-chromatography-coupled mass spectrometry (LC–MS). To be noted: 2 µM.
Data set [6] can be described thus: The drug is tested on Bacteroides vulgatus strain: ATCC8482 for biotransformation. The drug concentrations were measured before and after a 12-h incubation by liquid-chromatography-coupled mass spectrometry (LC–MS). To be noted: phocaeicola vulgatus, 2 µM.
The nature of data set [7]: The drug is tested on Parabacteroides merdae strain: ATCC43184 for biotransformation. The drug concentrations were measured before and after a 12-h incubation by liquid-chromatography-coupled mass spectrometry (LC–MS). The note with it: 2 µM.
Data set [8] in a line: The drug is tested on Anaerotruncus colihominis strain: DSM17241 for biotransformation. The drug concentrations were measured before and after a 12-h incubation by liquid-chromatography-coupled mass spectrometry (LC–MS). The note with it: 2 µM.
Data set [9] is described as follows: The drug is tested on Clostridium sp. strain: fecal isolate for biotransformation. The drug concentrations were measured before and after a 12-h incubation by liquid-chromatography-coupled mass spectrometry (LC–MS). To be noted: 2 µM.
Data set [10] can be described thus: The drug is tested on Clostridium scindens strain: ATCC35704 for biotransformation. The drug concentrations were measured before and after a 12-h incubation by liquid-chromatography-coupled mass spectrometry (LC–MS). To be noted: 2 µM.
The nature of data set [11]: The drug is tested on Dorea formicigenerans strain: ATCC27755 for biotransformation. The drug concentrations were measured before and after a 12-h incubation by liquid-chromatography-coupled mass spectrometry (LC–MS). To be noted: 2 µM.
Data set [12] is described as follows: The drug is tested on Ruminococcus gnavus strain: ATCC29149 for biotransformation. The drug concentrations were measured before and after a 12-h incubation by liquid-chromatography-coupled mass spectrometry (LC–MS). To be noted: mediterraneibacter gnavus, 2 µM.
Data set [13] in a line: The drug is tested on Ruminococcus lactaris strain: ATCC29176 for biotransformation. The drug concentrations were measured before and after a 12-h incubation by liquid-chromatography-coupled mass spectrometry (LC–MS). To be noted: 2 µM.
Data set [14] is described as follows: The drug is tested on Ruminococcus torques strain: ATCC27756 for biotransformation. The drug concentrations were measured before and after a 12-h incubation by liquid-chromatography-coupled mass spectrometry (LC–MS). The data set is classed as ADME. Details: dose 2 uM, timepoint 0 vs 12 hours. To be noted: 2 µM.
For data set [15] the following is noted: bifidobacterium adolescentis, 12 h, 2 µM.
Description: The drug is tested on Bifidobacterium adolescentis strain: ATCC 15703 for biotransformation. The drug concentrations were measured before and after a 12-h incubation by liquid-chromatography-coupled mass spectrometry (LC–MS)
The conditions of data set [16]: bacteroides fragilis, 12 h, 2 µM.
Description: The drug is tested on Bacteroides fragilis strain: DS-208 for biotransformation. The drug concentrations were measured before and after a 12-h incubation by liquid-chromatography-coupled mass spectrometry (LC–MS)
The conditions of data set [17]: bacteroides intestinalis, 12 h, 2 µM.
Description: The drug is tested on Bacteroides intestinalis strain: DSM17393 for biotransformation. The drug concentrations were measured before and after a 12-h incubation by liquid-chromatography-coupled mass spectrometry (LC–MS)
The conditions of data set [18]: bacteroides thetaiotaomicron, 12 h, 2 µM.
Description: The drug is tested on Bacteroides thetaiotaomicron strain: VPI-5482 for biotransformation. The drug concentrations were measured before and after a 12-h incubation by liquid-chromatography-coupled mass spectrometry (LC–MS)
For data set [19] the following is noted: parabacteroides johnsonii, 12 h, 2 µM.
Description: The drug is tested on Parabacteroides johnsonii strain: DSM18315 for biotransformation. The drug concentrations were measured before and after a 12-h incubation by liquid-chromatography-coupled mass spectrometry (LC–MS)
The conditions of data set [20]: anaerostipes sp., 12 h, 2 µM.
Description: The drug is tested on Anaerostipes sp. strain: fecal isolate for biotransformation. The drug concentrations were measured before and after a 12-h incubation by liquid-chromatography-coupled mass spectrometry (LC–MS)

Turning to `CC(C)(C)NC[C@H](O)COc1nsnc1N1CCOCC1.O=C(O)/C=C\C(=O)O` [TIMOLOL MALEATE], the “Bacterial Biotransformation” value in data set [1], in data set [2], in data set [3], in data set [4], in [5] and in [6] was “Compound NOT metabolized” in each case. The “Bacterial Biotransformation” value in [7], in data set [8], in [9], in data set [10], in [11] and in data set [12] was “Compound NOT metabolized” each time. In addition, the “Bacterial Biotransformation” value in [13], in data set [14], in data set [15], in [16], in [17] and in [18] was “Compound NOT metabolized” each time. For the same compound, the “Bacterial Biotransformation” value in data set [19] and in [20] was “Compound NOT metabolized” throughout.

For the compound `CC[C@@]1(O)C(=O)OCc2c1cc1n(c2=O)Cc2cc3c(CN(C)C)c(O)ccc3nc2-1` [TOPOTECAN], the “Bacterial Biotransformation” value in [1], in data set [2], in data set [3], in data set [4], in data set [5] and in data set [6] was “Compound NOT metabolized” throughout. Besides, the “Bacterial Biotransformation” value in data set [7], in data set [8], in data set [9], in data set [10], in [11] and in [12] was “Compound NOT metabolized” each time. For the same compound, the “Bacterial Biotransformation” value in data set [13], in data set [14], in data set [15], in data set [16], in data set [17] and in [18] was “Compound NOT metabolized” in each case. For the same compound, the “Bacterial Biotransformation” value in data set [19] and in data set [20] was “Compound NOT metabolized” each time.

On to `CN(C/C=C/C#CC(C)(C)C)Cc1cccc2ccccc12` [TERBINAFINE], for which the “Bacterial Biotransformation” value in data set [1], in [2], in data set [3], in data set [4], in [5] and in data set [6] was “Compound NOT metabolized” each time. Also, the “Bacterial Biotransformation” value in [7], in data set [8], in data set [9], in data set [10], in data set [11] and in data set [12] was “Compound NOT metabolized” in each case. The “Bacterial Biotransformation” value in data set [13], in data set [14], in [15], in [16], in data set [17] and in data set [18] was “Compound NOT metabolized” each time. Besides, the “Bacterial Biotransformation” value in data set [19] and in data set [20] was “Compound NOT metabolized” throughout.

Turning to `CCOc1ccc(NC(C)=O)cc1` [PHENACETIN], the “Bacterial Biotransformation” value in [1], in data set [2], in data set [3], in data set [4], in data set [5] and in data set [6] was “Compound NOT metabolized” in each case. The “Bacterial Biotransformation” value in data set [7], in [8], in data set [9], in data set [10], in data set [11] and in data set [12] was “Compound NOT metabolized” each time. Moreover, the “Bacterial Biotransformation” value in [13], in data set [14], in data set [15], in data set [16], in [17] and in data set [18] was “Compound NOT metabolized” in each case. The “Bacterial Biotransformation” value in data set [19] and in data set [20] was “Compound NOT metabolized” in each case.

As for `CN1[C@@H]2CC[C@H]1C[C@@H](OC(=O)c1c[nH]c3ccccc13)C2` [TROPISETRON], the “Bacterial Biotransformation” value in data set [1], in [2], in [3], in data set [4], in data set [5] and in data set [6] was “Compound NOT metabolized” throughout. Moreover, the “Bacterial Biotransformation” value in [7], in data set [8], in [9], in [10], in [11] and in data set [12] was “Compound NOT metabolized” throughout. Also, the “Bacterial Biotransformation” value in data set [13], in data set [14], in data set [15], in data set [16], in data set [17] and in data set [18] was “Compound NOT metabolized” throughout. The “Bacterial Biotransformation” value in data set [19] and in [20] was “Compound NOT metabolized” each time.

As to `CCCCC1=NC2(CCCC2)C(=O)N1Cc1ccc(-c2ccccc2-c2nnn[nH]2)cc1` [IRBESARTAN], the “Bacterial Biotransformation” value in data set [1] is recorded as “Compound metabolized”; in [2] it was “Compound metabolized”; in data set [3] it was “Compound metabolized”; in [4], “Compound NOT metabolized”; in data set [5], “Compound metabolized”; in data set [6] it was “Compound metabolized”. Besides, the “Bacterial Biotransformation” value in [7] was “Compound metabolized”; in data set [8], “Compound metabolized”; in data set [9], “Compound metabolized”; in data set [10], “Compound metabolized”; in data set [11] it was “Compound metabolized”; in data set [12], “Compound NOT metabolized”. The “Bacterial Biotransformation” value in data set [13], in data set [14], in data set [15], in data set [16], in data set [17] and in data set [18] was “Compound metabolized” each time. Further, the “Bacterial Biotransformation” value in data set [19] and in [20] was “Compound metabolized” in each case.

The values above are taken from ChEMBL document CHEMBL5303573, “Mapping human microbiome drug metabolism by gut bacteria and their genes” (Nature, 2019).
